Experimental data reported in ChEMBL document CHEMBL4507274 (2021).

Legend:
[1] = target: Serine/threonine-protein kinase SBK1 (Homo sapiens) (UniProt Q52WX2); conditions: Compound concentration 100.0 nM
[2] = target: Tyrosine-protein kinase SYK (Homo sapiens) (UniProt P43405); conditions: Compound concentration 100.0 nM
[3] = target: 5-hydroxytryptamine receptor 6 (Homo sapiens) (UniProt P50406); conditions: Compound concentration 10.0 uM
[4] = target: Tyrosine-protein kinase Blk (Homo sapiens) (UniProt P51451); conditions: Compound concentration 100.0 nM
[5] = target: Mitogen-activated protein kinase 8 (Homo sapiens) (UniProt P45983); conditions: Compound concentration 100.0 nM
[6] = target: Serine/threonine-protein kinase Nek7 (Homo sapiens) (UniProt Q8TDX7); conditions: Compound concentration 100.0 nM
[7] = system: Receptor-type tyrosine-protein kinase FLT3 (Homo sapiens), P36888 [D835Y]; conditions: Compound concentration 100.0 nM
[8] = target: Serine/threonine-protein kinase PAK 3 (Homo sapiens) (UniProt O75914); conditions: Compound concentration 100.0 nM
[9] = target: Serine/threonine-protein kinase Chk2 (Homo sapiens) (UniProt O96017); conditions: Compound concentration 100.0 nM
[10] = system: Tyrosine-protein kinase ABL1 (Homo sapiens), P00519 [F317I]; conditions: Compound concentration 100.0 nM
[11] = target: Serine/threonine-protein kinase LATS2 (Homo sapiens) (UniProt Q9NRM7); conditions: Compound concentration 100.0 nM
[12] = target: Mitogen-activated protein kinase 4 (Homo sapiens) (UniProt P31152); conditions: Compound concentration 100.0 nM
[13] = target: Ribosomal protein S6 kinase alpha-2 (Homo sapiens) (UniProt Q15349); conditions: Compound concentration 100.0 nM
[14] = target: Atypical kinase COQ8B, mitochondrial (Homo sapiens) (UniProt Q96D53); conditions: Compound concentration 100.0 nM
[15] = target: Leucine-rich repeat serine/threonine-protein kinase 2 (Homo sapiens) (UniProt Q5S007); conditions: Compound concentration 100.0 nM
[16] = target: Calcium/calmodulin-dependent protein kinase kinase 1 (Homo sapiens) (UniProt Q8N5S9); conditions: Compound concentration 100.0 nM
[17] = target: Casein kinase I isoform alpha (Homo sapiens) (UniProt P48729); conditions: Compound concentration 100.0 nM
[18] = target: Myotonin-protein kinase (Homo sapiens) (UniProt Q09013); conditions: Compound concentration 100.0 nM
[19] = target: Mitogen-activated protein kinase kinase kinase 19 (Homo sapiens) (UniProt Q56UN5); conditions: Compound concentration 100.0 nM
[20] = target: T1, Serine/threonine-protein kinase 3 (Homo sapiens) (UniProt Q13188); conditions: Compound concentration 100.0 nM
T1 sequence (whole entry): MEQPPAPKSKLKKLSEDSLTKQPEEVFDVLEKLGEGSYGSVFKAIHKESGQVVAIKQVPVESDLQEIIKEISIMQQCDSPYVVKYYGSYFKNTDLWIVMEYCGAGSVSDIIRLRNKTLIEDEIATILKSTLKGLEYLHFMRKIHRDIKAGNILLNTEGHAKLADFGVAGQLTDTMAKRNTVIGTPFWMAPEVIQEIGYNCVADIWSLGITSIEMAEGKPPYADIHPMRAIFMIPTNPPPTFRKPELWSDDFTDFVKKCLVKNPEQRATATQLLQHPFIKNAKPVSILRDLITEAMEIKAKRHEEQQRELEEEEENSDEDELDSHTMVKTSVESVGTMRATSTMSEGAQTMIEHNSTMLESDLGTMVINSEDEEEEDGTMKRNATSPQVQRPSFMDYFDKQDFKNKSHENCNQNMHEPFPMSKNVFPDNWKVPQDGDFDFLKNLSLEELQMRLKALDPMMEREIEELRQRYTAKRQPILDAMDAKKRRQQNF

[21] = target: Tyrosine-protein kinase CSK (Homo sapiens) (UniProt P41240); conditions: Compound concentration 100.0 nM
[22] = target: Phosphatidylinositol 4,5-bisphosphate 3-kinase catalytic subunit beta isoform (Homo sapiens) (UniProt P42338); conditions: Compound concentration 100.0 nM
[23] = target: ALK tyrosine kinase receptor (Homo sapiens) (UniProt Q9UM73); conditions: Compound concentration 100.0 nM
[24] = target: Cyclin-dependent kinase 14 (Homo sapiens) (UniProt O94921); conditions: Compound concentration 100.0 nM
[25] = target: Mitogen-activated protein kinase kinase kinase 10 (Homo sapiens) (UniProt Q02779); conditions: Compound concentration 100.0 nM
[26] = target: Membrane-associated tyrosine- and threonine-specific cdc2-inhibitory kinase (Homo sapiens) (UniProt Q99640); conditions: Compound concentration 100.0 nM
[27] = target: Phosphatidylinositol 4,5-bisphosphate 3-kinase catalytic subunit delta isoform (Homo sapiens) (UniProt O00329); conditions: Compound concentration 100.0 nM
[28] = target: Serine/threonine-protein kinase mTOR (Homo sapiens) (UniProt P42345); conditions: Compound concentration 100.0 nM
[29] = target: Aurora kinase C (Homo sapiens) (UniProt Q9UQB9); conditions: Compound concentration 100.0 nM
[30] = system: Tyrosine-protein kinase ABL1 (Homo sapiens), P00519 [M351T]; conditions: Compound concentration 100.0 nM
[31] = target: Serine/threonine-protein kinase WNK3 (Homo sapiens) (UniProt Q9BYP7); conditions: Compound concentration 100.0 nM
[32] = target: Serine/threonine-protein kinase WNK4 (Homo sapiens) (UniProt Q96J92); conditions: Compound concentration 100.0 nM
[33] = target: BDNF/NT-3 growth factors receptor (Homo sapiens) (UniProt Q16620); conditions: Compound concentration 100.0 nM
[34] = target: Casein kinase I isoform gamma-3 (Homo sapiens) (UniProt Q9Y6M4); conditions: Compound concentration 100.0 nM
[35] = target: Serine/threonine-protein kinase Nek1 (Homo sapiens) (UniProt Q96PY6); conditions: Compound concentration 100.0 nM
[36] = target: Ribosomal protein S6 kinase alpha-1 (Homo sapiens) (UniProt Q15418); conditions: Compound concentration 100.0 nM
[37] = target: Vascular endothelial growth factor receptor 2 (Homo sapiens) (UniProt P35968); conditions: Compound concentration 100.0 nM
[38] = target: Testis-specific serine/threonine-protein kinase 3 (Homo sapiens) (UniProt Q96PN8); conditions: Compound concentration 100.0 nM

Chain of Serine/threonine-protein kinase Nek7 (Homo sapiens) (Q8TDX7 whole entry, looked up): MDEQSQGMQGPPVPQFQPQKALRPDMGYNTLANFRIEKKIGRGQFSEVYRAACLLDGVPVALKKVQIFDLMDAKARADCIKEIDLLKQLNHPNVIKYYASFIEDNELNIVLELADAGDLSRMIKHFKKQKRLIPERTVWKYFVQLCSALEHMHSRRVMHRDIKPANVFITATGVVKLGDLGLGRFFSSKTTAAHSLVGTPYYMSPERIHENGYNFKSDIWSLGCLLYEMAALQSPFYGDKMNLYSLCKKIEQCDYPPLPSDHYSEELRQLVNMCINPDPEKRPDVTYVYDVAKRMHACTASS
Chain of Serine/threonine-protein kinase WNK3 (Homo sapiens) (Q9BYP7 whole entry): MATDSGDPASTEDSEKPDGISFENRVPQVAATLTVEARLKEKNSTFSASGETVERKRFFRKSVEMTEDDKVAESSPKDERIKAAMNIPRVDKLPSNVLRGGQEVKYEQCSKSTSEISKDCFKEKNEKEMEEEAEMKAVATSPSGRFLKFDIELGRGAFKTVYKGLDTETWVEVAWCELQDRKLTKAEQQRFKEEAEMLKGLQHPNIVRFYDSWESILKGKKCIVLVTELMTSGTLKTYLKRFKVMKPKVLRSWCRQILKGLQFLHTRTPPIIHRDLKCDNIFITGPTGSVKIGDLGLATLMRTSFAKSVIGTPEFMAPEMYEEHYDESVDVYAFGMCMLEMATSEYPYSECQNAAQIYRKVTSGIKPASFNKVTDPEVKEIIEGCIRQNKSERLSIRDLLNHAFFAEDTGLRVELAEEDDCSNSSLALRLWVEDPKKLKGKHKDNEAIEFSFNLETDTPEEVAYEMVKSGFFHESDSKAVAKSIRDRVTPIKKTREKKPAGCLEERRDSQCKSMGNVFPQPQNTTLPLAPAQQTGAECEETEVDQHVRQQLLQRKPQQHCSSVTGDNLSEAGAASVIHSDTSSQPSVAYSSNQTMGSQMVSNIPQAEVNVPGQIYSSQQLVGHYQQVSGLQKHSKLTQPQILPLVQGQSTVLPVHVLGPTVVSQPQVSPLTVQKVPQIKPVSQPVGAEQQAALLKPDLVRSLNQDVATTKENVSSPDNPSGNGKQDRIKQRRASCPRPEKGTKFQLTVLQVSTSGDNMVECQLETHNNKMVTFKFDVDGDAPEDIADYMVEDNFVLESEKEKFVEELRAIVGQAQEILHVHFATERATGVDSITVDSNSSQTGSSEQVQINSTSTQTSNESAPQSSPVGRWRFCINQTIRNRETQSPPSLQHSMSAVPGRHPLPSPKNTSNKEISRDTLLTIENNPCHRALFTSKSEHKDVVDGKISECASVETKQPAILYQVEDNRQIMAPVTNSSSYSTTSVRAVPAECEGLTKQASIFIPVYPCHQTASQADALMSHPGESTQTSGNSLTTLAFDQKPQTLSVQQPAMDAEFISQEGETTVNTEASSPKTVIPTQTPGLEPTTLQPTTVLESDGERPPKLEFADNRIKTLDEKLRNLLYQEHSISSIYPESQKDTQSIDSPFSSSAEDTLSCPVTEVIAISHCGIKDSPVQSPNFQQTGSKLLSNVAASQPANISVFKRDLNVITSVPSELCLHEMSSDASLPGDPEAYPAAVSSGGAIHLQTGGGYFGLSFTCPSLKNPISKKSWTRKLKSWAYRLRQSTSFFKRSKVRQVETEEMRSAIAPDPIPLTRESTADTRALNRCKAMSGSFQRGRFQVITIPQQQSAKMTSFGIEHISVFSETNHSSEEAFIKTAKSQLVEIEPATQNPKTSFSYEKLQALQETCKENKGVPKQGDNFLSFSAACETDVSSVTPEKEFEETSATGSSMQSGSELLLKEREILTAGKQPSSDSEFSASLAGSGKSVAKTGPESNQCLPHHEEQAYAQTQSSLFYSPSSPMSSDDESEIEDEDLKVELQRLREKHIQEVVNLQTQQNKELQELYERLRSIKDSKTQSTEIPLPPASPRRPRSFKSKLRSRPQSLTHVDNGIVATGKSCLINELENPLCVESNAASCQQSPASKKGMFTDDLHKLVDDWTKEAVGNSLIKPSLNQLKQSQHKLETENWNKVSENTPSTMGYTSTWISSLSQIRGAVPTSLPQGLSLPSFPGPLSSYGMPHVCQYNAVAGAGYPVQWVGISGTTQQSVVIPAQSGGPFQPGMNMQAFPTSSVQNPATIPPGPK
Chain of Aurora kinase C (Homo sapiens) (Q9UQB9 whole entry): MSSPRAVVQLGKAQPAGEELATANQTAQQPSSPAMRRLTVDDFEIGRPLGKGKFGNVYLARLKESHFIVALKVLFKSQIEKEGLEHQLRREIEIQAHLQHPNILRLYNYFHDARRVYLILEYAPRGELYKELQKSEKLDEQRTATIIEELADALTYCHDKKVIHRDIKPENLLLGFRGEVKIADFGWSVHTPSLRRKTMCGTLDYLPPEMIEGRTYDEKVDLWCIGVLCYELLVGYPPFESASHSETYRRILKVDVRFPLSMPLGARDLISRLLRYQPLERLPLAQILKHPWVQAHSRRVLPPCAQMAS
Chain of Serine/threonine-protein kinase WNK4 (Homo sapiens) (Q96J92 whole entry): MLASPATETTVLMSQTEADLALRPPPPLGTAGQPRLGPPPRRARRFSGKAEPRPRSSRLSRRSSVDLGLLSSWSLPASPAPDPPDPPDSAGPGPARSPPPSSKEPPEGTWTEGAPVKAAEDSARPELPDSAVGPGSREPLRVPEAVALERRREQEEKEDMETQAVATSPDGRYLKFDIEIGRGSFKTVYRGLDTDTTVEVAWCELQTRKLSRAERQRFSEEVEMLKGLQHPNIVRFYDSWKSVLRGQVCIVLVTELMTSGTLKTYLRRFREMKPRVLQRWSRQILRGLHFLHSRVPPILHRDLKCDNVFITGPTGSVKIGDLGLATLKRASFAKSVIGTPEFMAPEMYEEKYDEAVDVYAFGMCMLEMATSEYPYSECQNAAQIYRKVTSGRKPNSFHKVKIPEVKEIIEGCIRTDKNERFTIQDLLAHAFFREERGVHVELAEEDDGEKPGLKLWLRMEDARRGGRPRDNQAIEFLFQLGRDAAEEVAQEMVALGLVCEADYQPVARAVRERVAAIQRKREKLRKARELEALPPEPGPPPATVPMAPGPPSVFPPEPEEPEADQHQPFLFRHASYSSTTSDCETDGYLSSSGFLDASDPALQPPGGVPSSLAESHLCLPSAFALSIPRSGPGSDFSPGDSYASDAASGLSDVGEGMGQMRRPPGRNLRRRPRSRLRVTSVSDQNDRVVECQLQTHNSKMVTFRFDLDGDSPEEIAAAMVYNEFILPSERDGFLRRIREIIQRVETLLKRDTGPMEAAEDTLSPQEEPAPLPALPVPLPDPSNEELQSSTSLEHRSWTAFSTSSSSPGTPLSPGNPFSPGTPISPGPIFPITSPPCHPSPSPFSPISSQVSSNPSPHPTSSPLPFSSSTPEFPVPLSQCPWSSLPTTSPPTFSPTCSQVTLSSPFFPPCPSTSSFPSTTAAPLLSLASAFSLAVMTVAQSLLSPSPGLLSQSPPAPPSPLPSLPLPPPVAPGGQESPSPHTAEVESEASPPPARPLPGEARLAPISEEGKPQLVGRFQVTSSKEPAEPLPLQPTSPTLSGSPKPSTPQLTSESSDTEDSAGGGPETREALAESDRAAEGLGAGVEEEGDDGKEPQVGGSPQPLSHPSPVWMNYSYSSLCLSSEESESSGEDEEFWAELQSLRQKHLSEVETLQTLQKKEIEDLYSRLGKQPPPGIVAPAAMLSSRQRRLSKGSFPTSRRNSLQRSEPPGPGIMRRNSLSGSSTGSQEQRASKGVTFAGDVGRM
Chain of Myotonin-protein kinase (Homo sapiens) (Q09013 whole entry): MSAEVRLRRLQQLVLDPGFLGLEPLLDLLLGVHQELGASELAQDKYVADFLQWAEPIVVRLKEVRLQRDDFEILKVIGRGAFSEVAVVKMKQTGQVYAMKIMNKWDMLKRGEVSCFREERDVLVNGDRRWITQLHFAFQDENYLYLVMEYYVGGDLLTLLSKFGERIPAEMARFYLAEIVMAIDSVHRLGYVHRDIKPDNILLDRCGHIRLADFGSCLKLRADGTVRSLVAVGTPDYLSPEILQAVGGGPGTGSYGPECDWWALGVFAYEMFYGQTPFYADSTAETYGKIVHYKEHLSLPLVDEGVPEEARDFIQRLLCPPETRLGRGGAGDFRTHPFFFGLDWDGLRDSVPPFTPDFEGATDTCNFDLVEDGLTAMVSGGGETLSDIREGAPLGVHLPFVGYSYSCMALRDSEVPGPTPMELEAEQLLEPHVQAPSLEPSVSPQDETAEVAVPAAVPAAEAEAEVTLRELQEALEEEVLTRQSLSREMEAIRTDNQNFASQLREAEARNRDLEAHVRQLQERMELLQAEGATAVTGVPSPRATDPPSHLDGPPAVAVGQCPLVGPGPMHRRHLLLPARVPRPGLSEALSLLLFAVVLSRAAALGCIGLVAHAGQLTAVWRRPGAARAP
Chain of Serine/threonine-protein kinase Chk2 (Homo sapiens) (O96017 whole entry): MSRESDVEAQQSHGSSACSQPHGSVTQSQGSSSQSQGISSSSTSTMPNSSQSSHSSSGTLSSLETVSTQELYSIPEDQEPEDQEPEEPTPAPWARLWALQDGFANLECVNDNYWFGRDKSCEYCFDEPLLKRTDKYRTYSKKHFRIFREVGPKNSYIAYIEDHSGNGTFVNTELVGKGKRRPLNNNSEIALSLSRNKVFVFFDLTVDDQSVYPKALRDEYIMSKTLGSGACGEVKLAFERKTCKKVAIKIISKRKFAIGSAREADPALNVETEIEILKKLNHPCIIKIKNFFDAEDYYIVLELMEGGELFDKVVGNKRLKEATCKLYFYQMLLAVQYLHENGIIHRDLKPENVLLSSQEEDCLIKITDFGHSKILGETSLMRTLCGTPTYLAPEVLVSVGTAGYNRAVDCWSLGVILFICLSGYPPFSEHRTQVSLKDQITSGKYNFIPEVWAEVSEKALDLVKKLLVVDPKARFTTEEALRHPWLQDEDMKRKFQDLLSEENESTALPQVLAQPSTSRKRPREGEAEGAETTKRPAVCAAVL

SMILES	residual activity [1]	residual activity [2]	inhibition [3]	residual activity [4]	residual activity [5]	residual activity [6]	residual activity [7]	residual activity [8]	residual activity [9]	residual activity [10]	residual activity [11]	residual activity [12]	residual activity [13]	residual activity [14]	residual activity [15]	residual activity [16]	residual activity [17]	residual activity [18]	residual activity [19]	residual activity [20]	other results
Cc1c[nH]c2nccc(Oc3c(F)cc(Nc4cc(Cl)nc(N)n4)cc3F)c12 [BAY-549]	94%	100%	-1.5%	90%	80%	100%	63%	86%	89%	55%	0.7%	81%	82%	88%	100%	99%	96%	56%	74%	69%	residual activity [21]: 87%; residual activity [22]: 76%; residual activity [23]: 95%; residual activity [24]: 100%; residual activity [25]: 100%; residual activity [26]: 98%; residual activity [27]: 51%; residual activity [28]: 85%; residual activity [29]: 72%; residual activity [30]: 83%; residual activity [31]: 90%; residual activity [32]: 100%; residual activity [33]: 94%; residual activity [34]: 100%; residual activity [35]: 96%; residual activity [36]: 100%; residual activity [37]: 81%; residual activity [38]: 100%
Cn1cc(Cl)c2c(Oc3c(F)cc(Nc4cc(Cl)nc(N)n4)cc3F)ccnc21 [BAY-4900]	97%	100%	-1.64%	96%	76%	100%	99%	100%	94%	89%	91%	100%	95%	89%	75%	100%	93%	86%	75%	92%	residual activity [21]: 100%; residual activity [22]: 82%; residual activity [23]: 89%; residual activity [24]: 100%; residual activity [25]: 100%; residual activity [26]: 100%; residual activity [27]: 51%; residual activity [28]: 85%; residual activity [29]: 97%; residual activity [30]: 90%; residual activity [31]: 95%; residual activity [32]: 100%; residual activity [33]: 96%; residual activity [34]: 100%; residual activity [35]: 100%; residual activity [36]: 100%; residual activity [37]: 93%; residual activity [38]: 100%
